Patent US8071581B2, “Triazolopyridazine protein kinase modulators” (SGX Pharmaceuticals, Inc., priority 2006, dated 2011)

Key:
GTL16 = GTL16 cell assay (EC50); format: cell-based; conditions: Homo sapiens, GTL 16; Table 1
Experimental: Compounds were tested in the following assays in duplicate. 96-well XTT assay: Cells were grown in growth media containing various concentrations of compounds (duplicates) on a 96-well flat bottom plate for 72 hours at 37° C. in 5% CO2. The starting cell number was 5000 cells per well and volume was 120 μl. At the end of the 72-hour incubation, 40 μl of XTT labeling mixture (50:1 solution of sodium 3′-[1-(phenylaminocarbonyl)-3,4-tetrazolium]-bis(4-methoxy-6-nitro) benzene sulfonic acid hydrate and Electron-coupling reagent: PMS (N-methyl dibenzopyrazine methyl sulfate) were added to each well of the plate. After an additional 2-6 hours […] with a spectrophotometer.

[1] = biological target: MET kinase (c-MET), kinase domain of human Met (Homo sapiens, UniProt P08581); assay: MET luminescence-based enzyme assay (Kinase-Glo)
Sequence of MET kinase (c-MET), kinase domain of human Met (P08581 1078-1345 limits assumed): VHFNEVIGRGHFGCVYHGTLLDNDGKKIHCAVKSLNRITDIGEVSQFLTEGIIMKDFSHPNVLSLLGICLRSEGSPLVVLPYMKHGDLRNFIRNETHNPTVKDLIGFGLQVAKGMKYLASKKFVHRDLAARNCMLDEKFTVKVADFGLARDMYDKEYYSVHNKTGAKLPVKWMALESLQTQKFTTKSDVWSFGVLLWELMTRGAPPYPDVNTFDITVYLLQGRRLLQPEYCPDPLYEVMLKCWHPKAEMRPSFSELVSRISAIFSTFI

Structure (SMILES) | EC50 (GTL16) | IC50 [1]
Fc1ccccc1-c1ccc2nnc(Cc3ccc4ncccc4c3)n2n1 [compound 53] | 100 to 1000 nM | 100 to 1000 nM
OCc1ccc(-c2ccc3nnc(Cc4ccc5ncccc5c4)n3n2)cc1 [compound 54] | 100 to 1000 nM | < 100 nM
NCc1cccc(-c2ccc3nnc(Cc4ccc5ncccc5c4)n3n2)c1 [compound 55] | 100 to 1000 nM | < 100 nM
CNC(=O)c1cc(F)cc(-c2ccc3nnc(Cc4ccc5ncccc5c4)n3n2)c1 [compound 56] | 100 to 1000 nM | 100 to 1000 nM
CC(=O)Nc1cccc(-c2ccc3nnc(Cc4ccc5ncccc5c4)n3n2)c1 [compound 57] | 1000 to 10000 nM | 100 to 1000 nM
CNC(=O)c1cccc(-c2ccc3nnc(Cc4ccc5ncccc5c4)n3n2)c1 [compound 58] | 1000 to 10000 nM | 100 to 1000 nM
N#CCc1cccc(-c2ccc3nnc(Cc4ccc5ncccc5c4)n3n2)c1 [compound 61] | 100 to 1000 nM | < 100 nM
O=S(=O)(c1ccc(-c2ccc3nnc(Cc4ccc5ncccc5c4)n3n2)cc1)N1CCOCC1 [compound 62] | 100 to 1000 nM | < 100 nM
Fc1ccc(-c2ccc3nnc(Cc4ccc5ncccc5c4)n3n2)cc1 [compound 63] | 100 to 1000 nM | 100 to 1000 nM
CNC(=O)c1ccc(-c2ccc3nnc(Cc4ccc5ncccc5c4)n3n2)cc1 [compound 66] | 100 to 1000 nM | < 100 nM
CN(C)c1cccc(-c2ccc3nnc(Cc4ccc5ncccc5c4)n3n2)c1 [compound 67] | 100 to 1000 nM | 100 to 1000 nM
Cn1cnc2ccc(Cc3nnc4ccc(-c5ccccc5)nn34)cc21 [compound 68, 3-(3-Methyl-3H-benzoimidazol-5-ylmethyl)-6-phenyl-[1,2,4]triazolo[4,3-b]pyridazine] | 100 to 1000 nM | 100 to 1000 nM
N#Cc1cc(-c2ccc3nnc(Cc4ccc5ncccc5c4)n3n2)ccc1F [compound 69] | 1000 to 10000 nM | 100 to 1000 nM
Fc1cc(F)cc(-c2ccc3nnc(Cc4ccc5ncccc5c4)n3n2)c1 [compound 70] | 100 to 1000 nM | < 100 nM
CN(C)C(=O)c1cc(F)cc(-c2ccc3nnc(Cc4ccc5ncccc5c4)n3n2)c1 [compound 71] | 100 to 1000 nM | 100 to 1000 nM
O=C(NCC(F)(F)F)c1ccc(-c2ccc3nnc(Cc4ccc5ncccc5c4)n3n2)cc1 [compound 72] | 100 to 1000 nM | < 100 nM
O=C(NCCO)c1ccc(-c2ccc3nnc(Cc4ccc5ncccc5c4)n3n2)cc1F [compound 74] | 100 to 1000 nM | < 100 nM

The remaining lines, values ahead:

EC50 (GTL16) | IC50 [1] | Structure (SMILES)
< 100 nM | < 100 nM | CNS(=O)(=O)c1cccc(-c2ccc3nnc(Cc4ccc5ncccc5c4)n3n2)c1 [compound 48]
< 100 nM | < 100 nM | CS(=O)(=O)c1cccc(-c2ccc3nnc(Cc4ccc5ncccc5c4)n3n2)c1 [compound 49]
100 to 1000 nM | < 100 nM | CS(=O)(=O)Nc1cccc(-c2ccc3nnc(Cc4ccc5ncccc5c4)n3n2)c1 [compound 51]
100 to 1000 nM | < 100 nM | CC(=O)Nc1ccc(-c2ccc3nnc(Cc4ccc5ncccc5c4)n3n2)cc1 [compound 52]
< 100 nM | < 100 nM | CN(C)S(=O)(=O)c1cccc(-c2ccc3nnc(Cc4ccc5ncccc5c4)n3n2)c1 [compound 64]
< 100 nM | < 100 nM | CNc1ccc(-c2ccc3nnc(Cc4ccc5ncccc5c4)n3n2)cc1 [compound 65]
< 100 nM | < 100 nM | CCNC(=O)c1ccc(-c2ccc3nnc(Cc4ccc5ncccc5c4)n3n2)cc1F [compound 75]
< 100 nM | < 100 nM | Cc1cc(F)cc(-c2ccc3nnc(Cc4ccc5ncccc5c4)n3n2)c1 [compound 76]
< 100 nM | 100 to 1000 nM | Fc1ccc(-c2ccc3nnc(Cc4ccc5ncccc5c4)n3n2)cc1C(F)(F)F [compound 77]
< 100 nM | < 100 nM | FC(F)(F)c1cccc(-c2ccc3nnc(Cc4ccc5ncccc5c4)n3n2)c1 [compound 78]
< 100 nM | < 100 nM | CC(c1ccc2ncsc2c1)c1nnc2ccc(-c3cnn(C)c3)nn12 (centres unmarked) [compound 79]
